Converted amounts (≈) assume the structure as drawn.

The test system of assay [1] is Salmonella typhi. Nature of the assay: Antibacterial activity against Salmonella enterica subsp. enterica serovar Typhi MTCC 733 assessed as growth inhibition at 3.12 to 50 ug/mL after 24 hr by agar disk diffusion method. It is filed as functional. A general note: In agar diffusion tests the substance spreads into inoculated agar from a disc or well.
Assay [2] concerns Klebsiella pneumoniae. Nature of the assay: Antibacterial activity against Klebsiella pneumoniae MTCC 109 assessed as growth inhibition at 3.12 to 50 ug/mL after 24 hr by agar disk diffusion method. It is filed as functional.
Assay [3] concerns Klebsiella pneumoniae. As to the kind of experiment: Antibacterial activity against Klebsiella pneumoniae MTCC 109 assessed as growth inhibition after 24 hr by agar streak dilution method. The settings on record: MTCC 109, 24 h. It is filed as functional.
The subject of assay [4] is Salmonella typhi. Nature of the assay: Antibacterial activity against Salmonella enterica subsp. enterica serovar Typhi MTCC 733 assessed as growth inhibition after 24 hr by agar streak dilution method. It is filed as functional. The settings on record: MTCC 733, 24 h.
Assay [5] relates to Pseudomonas aeruginosa. As to the kind of experiment: Antibacterial activity against Pseudomonas aeruginosa MTCC 741 assessed as growth inhibition after 24 hr by agar streak dilution method. It is filed as functional. The settings on record: MTCC 741, 24 h.
In assay [6] the test system is Escherichia coli. Nature of the assay: Antibacterial activity against Escherichia coli MTCC 739 assessed as growth inhibition after 24 hr by agar streak dilution method. The settings on record: MTCC 739, 24 h. It is filed as functional.
Assay [7] has as its system Bacillus cereus. Nature of the assay: Antibacterial activity against Bacillus cereus MTCC 430 assessed as growth inhibition after 24 hr by agar streak dilution method. It is filed as functional. The settings on record: MTCC 430, 24 h.
For assay [8], the system named is Staphylococcus aureus. Nature of the assay: Antibacterial activity against Staphylococcus aureus MTCC 96 assessed as growth inhibition after 24 hr by agar streak dilution method. The settings on record: MTCC 96, 24 h. It is filed as functional.
For assay [9], the system named is Mycobacterium tuberculosis. Nature of the assay: Antimycobacterial activity against Mycobacterium tuberculosis H37Rv assessed as growth inhibition at MIC after 12 to 28 days by Lowenstein and Jensen agar dilution method. It is filed as functional. (In general: In agar dilution the substance is mixed into plates at graded concentrations.)
Assay [10] deals with Mycobacterium tuberculosis. Nature of the assay: Antimycobacterial activity against Mycobacterium tuberculosis H37Rv assessed as growth inhibition after 12 to 28 days by Lowenstein and Jensen agar dilution method. It is filed as functional.
For assay [11], the system named is Mycobacterium tuberculosis. Nature of the assay: Antimycobacterial activity against Mycobacterium tuberculosis H37Rv assessed as growth inhibition at MIC measured within 10 days by BACTEC MGIT method. It is filed as functional.
Assay [12] has as its system Mycobacterium tuberculosis. Nature of the assay: Antimycobacterial activity against Mycobacterium tuberculosis H37Rv assessed as growth inhibition measured within 10 days by BACTEC MGIT method. It is filed as functional. The settings on record: 240 h.
Assay [13] concerns Candida albicans. Nature of the assay: Antifungal activity against Candida albicans MTCC 183 assessed as growth inhibition at 3.12 to 50 ug/mL after 24 hr by agar disk diffusion method. It is filed as functional.
The subject of assay [14] is Aspergillus clavatus. Nature of the assay: Antifungal activity against Aspergillus clavatus MTCC 1323 assessed as growth inhibition at 3.12 to 50 ug/mL after 24 hr by agar disk diffusion method. It is filed as functional.
Assay [15] relates to Aspergillus fumigatus. Nature of the assay: Antifungal activity against Aspergillus fumigatus MTCC 343 assessed as growth inhibition at 3.12 to 50 ug/mL after 24 hr by agar disk diffusion method. It is filed as functional.
Assay [16] has as its system Aspergillus niger. As to the kind of experiment: Antifungal activity against Aspergillus niger MTCC 282 assessed as growth inhibition at 3.12 to 50 ug/mL after 24 hr by agar disk diffusion method. It is filed as functional.
The test system of assay [17] is Candida albicans. As to the kind of experiment: Antifungal activity against Candida albicans MTCC 183 assessed as growth inhibition after 48 hr by agar streak dilution method. It is filed as functional. The settings on record: MTCC 183, 48 h.
Assay [18] has as its system Aspergillus clavatus. Nature of the assay: Antifungal activity against Aspergillus clavatus MTCC 1323 assessed as growth inhibition after 48 hr by agar streak dilution method. It is filed as functional. The settings on record: MTCC 1323, 48 h.
Assay [19] deals with Aspergillus fumigatus. As to the kind of experiment: Antifungal activity against Aspergillus fumigatus MTCC 343 assessed as growth inhibition after 48 hr by agar streak dilution method. It is filed as functional. The settings on record: MTCC 343, 48 h.
For assay [20], the system named is Aspergillus niger. As to the kind of experiment: Antifungal activity against Aspergillus niger MTCC 282 assessed as growth inhibition after 48 hr by agar streak dilution method. It is filed as functional. The settings on record: MTCC 282, 48 h.
Assay [21] relates to Shigella flexneri. Nature of the assay: Antibacterial activity against Shigella flexneri MTCC 1457 assessed as growth inhibition at 3.12 to 50 ug/mL after 24 hr by agar disk diffusion method. It is filed as functional.
For assay [22], the system named is Proteus vulgaris. Nature of the assay: Antibacterial activity against Proteus vulgaris MTCC 1771 assessed as growth inhibition at 3.12 to 50 ug/mL after 24 hr by agar disk diffusion method. It is filed as functional.
Assay [23] has as its system Pseudomonas aeruginosa. As to the kind of experiment: Antibacterial activity against Pseudomonas aeruginosa MTCC 741 assessed as growth inhibition at 3.12 to 50 ug/mL after 24 hr by agar disk diffusion method. It is filed as functional.
In assay [24] the test system is Escherichia coli. As to the kind of experiment: Antibacterial activity against Escherichia coli MTCC 739 assessed as growth inhibition at 3.12 to 50 ug/mL after 24 hr by agar disk diffusion method. It is filed as functional.
Assay [25] concerns Bacillus cereus. Nature of the assay: Antibacterial activity against Bacillus cereus MTCC 430 assessed as growth inhibition at 3.12 to 50 ug/mL after 24 hr by agar disk diffusion method. It is filed as functional.
For assay [26], the system named is Staphylococcus aureus. Nature of the assay: Antibacterial activity against Staphylococcus aureus MTCC 96 assessed as growth inhibition at 3.12 to 50 ug/mL after 24 hr by agar disk diffusion method. It is filed as functional.
Assay [27] deals with Shigella flexneri. As to the kind of experiment: Antibacterial activity against Shigella flexneri MTCC 1457 assessed as growth inhibition after 24 hr by agar streak dilution method. It is filed as functional. The settings on record: MTCC 1457, 24 h.
The test system of assay [28] is Proteus vulgaris. As to the kind of experiment: Antibacterial activity against Proteus vulgaris MTCC 1771 assessed as growth inhibition after 24 hr by agar streak dilution method. It is filed as functional. The settings on record: MTCC 1771, 24 h.
Assay [29] relates to Salmonella typhi. Nature of the assay: Antibacterial activity against Salmonella enterica subsp. enterica serovar Typhi MTCC 733 assessed as growth inhibition at 100 ug/disk after 24 hr by agar disk diffusion method. It is filed as functional. The settings on record: MTCC 733, 24 h, read-out: IZ.
Assay [30] has as its system Shigella flexneri. As to the kind of experiment: Antibacterial activity against Shigella flexneri MTCC 1457 assessed as growth inhibition at 100 ug/disk after 24 hr by agar disk diffusion method. It is filed as functional. The settings on record: MTCC 1457, 24 h, read-out: IZ.
Assay [31] has as its system Proteus vulgaris. As to the kind of experiment: Antibacterial activity against Proteus vulgaris MTCC 1771 assessed as growth inhibition at 100 ug/disk after 24 hr by agar disk diffusion method. The settings on record: MTCC 1771, 24 h, read-out: IZ. It is filed as functional.
Assay [32] has as its system Bacillus cereus. Nature of the assay: Antibacterial activity against Bacillus cereus MTCC 430 assessed as growth inhibition at 100 ug/disk after 24 hr by agar disk diffusion method. It is filed as functional. The settings on record: MTCC 430, 24 h, read-out: IZ.
Assay [33] concerns Staphylococcus aureus. Nature of the assay: Antibacterial activity against Staphylococcus aureus MTCC 96 assessed as growth inhibition at 100 ug/disk after 24 hr by agar disk diffusion method. The settings on record: MTCC 96, 24 h, read-out: IZ.
In assay [34] the test system is Klebsiella pneumoniae. As to the kind of experiment: microbe, parasite or virus in culture. The settings on record: MTCC 109, 24 h, read-out: IZ.
Description: Antibacterial activity against Klebsiella pneumoniae MTCC 109 assessed as growth inhibition at 100 ug/disk after 24 hr by agar disk diffusion method
In assay [35] the test system is Pseudomonas aeruginosa. Nature of the assay: microbe, parasite or virus in culture. The settings on record: MTCC 741, 24 h, read-out: IZ.
Description: Antibacterial activity against Pseudomonas aeruginosa MTCC 741 assessed as growth inhibition at 100 ug/disk after 24 hr by agar disk diffusion method
The subject of assay [36] is Escherichia coli. As to the kind of experiment: microbe, parasite or virus in culture. The settings on record: MTCC 739, 24 h, read-out: IZ.
Description: Antibacterial activity against Escherichia coli MTCC 739 assessed as growth inhibition at 100 ug/disk after 24 hr by agar disk diffusion method
Assay [37] has as its system Candida albicans. As to the kind of experiment: Antifungal activity against Candida albicans MTCC 183 assessed as growth inhibition at 100 ug/disk after 24 hr by agar disk diffusion method. It is filed as functional. The settings on record: MTCC 183, 24 h, read-out: IZ.
Assay [38] concerns Aspergillus clavatus. As to the kind of experiment: Antifungal activity against Aspergillus clavatus MTCC 1323 assessed as growth inhibition at 100 ug/disk after 24 hr by agar disk diffusion method. It is filed as functional. The settings on record: MTCC 1323, 24 h, read-out: IZ.
For assay [39], the system named is Aspergillus fumigatus. As to the kind of experiment: Antifungal activity against Aspergillus fumigatus MTCC 343 assessed as growth inhibition at 100 ug/disk after 24 hr by agar disk diffusion method. It is filed as functional. The settings on record: MTCC 343, 24 h, read-out: IZ.
Assay [40] concerns Aspergillus niger. As to the kind of experiment: Antifungal activity against Aspergillus niger MTCC 282 assessed as growth inhibition at 100 ug/disk after 24 hr by agar disk diffusion method. The settings on record: MTCC 282, 24 h, read-out: IZ. It is filed as functional.

As usually defined, the MIC is the least concentration at which growth counts as inhibited. For `CC1CC(C)CN(c2nc(-c3ccc(NCC(=O)Nc4ccc(Br)cc4)cc3)nc(N3CC(C)CC(C)C3)n2)C1` (stereo unspecified), the “inhibition zone (IZ)” value in assay [1] worked out at 20 mm; in [2] it was 24 mm; in [13], 13 mm; in assay [14] it was 25 mm; in [15], 23 mm; in assay [16] it was 12 mm. Besides, the “inhibition zone (IZ)” value in assay [21] is reported as 22 mm; in assay [22] it was 13 mm; in assay [23], 27 mm; in assay [24], 19 mm; in assay [25] it was 27 mm; in assay [26], 24 mm. Further, the MIC in assay [3] was determined as 25 µg/mL (≈ 41.2 µM); in [4], 25 µg/mL (≈ 41.2 µM); in assay [5], 12.5 µg/mL (≈ 20.6 µM); in [6], 25 µg/mL (≈ 41.2 µM); in assay [7] it was 6.25 µg/mL (≈ 10.3 µM); in assay [8] it was 3.12 µg/mL (≈ 5.14 µM). The MIC in [10] stood at 3.12 µg/mL (≈ 5.14 µM); in [12] it was 6.25 µg/mL (≈ 10.3 µM); in [17], 50 µg/mL (≈ 82.4 µM); in assay [18], 50 µg/mL (≈ 82.4 µM); in assay [19], 50 µg/mL (≈ 82.4 µM); in assay [20] it was 50 µg/mL (≈ 82.4 µM). Moreover, the figures for the MIC in assay [27] and in assay [28] were 12.5 µg/mL (≈ 20.6 µM) and 50 µg/mL (≈ 82.4 µM), respectively. Further, the “growth inhibition (GI)” value in assay [9] and in assay [11] was 99% in each case.

Consider `O=C(O)c1cn(C2CC2)c2cc(N3CCNCC3)c(F)cc2c1=O` [CIPROFLOXACIN], for which the zone of inhibition at 100 µg/disc in assay [29] turned out to be 30 mm; in [30] it was 32 mm; in assay [31], 31 mm; in assay [32] it was 31 mm; in assay [33], 30 mm; in assay [34], 33 mm. In addition, the figures for the zone of inhibition at 100 µg/disc in assay [35] and in assay [36] were 33 mm and 32 mm, respectively. In addition, the MIC stood at 0.78 µg/mL (≈ 2.35 µM) in [3]; 0.39 µg/mL (≈ 1.18 µM) in [4]; 0.78 µg/mL (≈ 2.35 µM) in assay [5]; 0.39 µg/mL (≈ 1.18 µM) in assay [7]; 1.56 µg/mL (≈ 4.71 µM) in assay [8]; 1.56 µg/mL (≈ 4.71 µM) in [27]. In [28], the MIC stood at 0.39 µg/mL (≈ 1.18 µM).

As to `CC(=O)N1CCN(c2ccc(OCC3COC(Cn4ccnc4)(c4ccc(Cl)cc4Cl)O3)cc2)CC1` (stereo unspecified) [KETOCONAZOLE], the zone of inhibition at 100 µg/disc worked out at 33 mm in [37], 31 mm in [38], 29 mm in assay [39] and 30 mm in assay [40]. Also, the MIC in assay [17] is 1.56 µg/mL (≈ 2.94 µM); in [18] it was 0.78 µg/mL (≈ 1.47 µM); in assay [19], 0.78 µg/mL (≈ 1.47 µM); in [20] it was 1.56 µg/mL (≈ 2.94 µM).

The record behind these values is ChEMBL document CHEMBL3046161, “Synthesis of potential antitubercular and antimicrobial s-triazine-based scaffolds via Suzuki cross-coupling reaction” (2013).
